{
  "source": "patent US8518677B2",
  "about": "“Microbial bioreaction process” (Evolva Sa, priority 2007, dated 2013)",
  "key": {"[1]": {"tested_on": "S. cerevisiae strain PALCPR", "experiment": "Growth of evolved PALCPR strains in the presence of extraction solvent (CO2 production)", "format": "cell-based", "conditions": "PALCPR-evolved-III from glycerol stock; 100 ml solvent from start, 800 rpm", "experimental": "The cells of the PALCPR-solvent culture described in the previous example were taken as starting point because the presence of the solvent mixture would possibly have already evoked adaptation of cells to solvents. For that, cells of the culture described in the previous example were harvested during mid-exponential-phase and stored at −80° C. in 15% glycerol and subsequently a fermentor, containing the same medium as described in the previous example with 10 g/l glucose and 100 g/l galactose, was then inoculated with cells of said PALCPR-solvent culture. The cells were allowed to fully consume the glucose at a stirring speed of 1000 rpm with an average dissolved oxygen content of above 70% of saturated air. At the onset of galactose consumption, the stirring rate was turned down to 300 rpm, after which slowly 100 ml of octylacetate was added.\nGalactose consumption indeed commenced again. A small arrest in CO2 production again occurred after 20 hours which, however, recovered after 5 hours, after which the cells grew exponentially with concomitant production of CO2, consumption of galactose within less than 40 hours. Based upon the CO2 production the specific growth rate was estimated to be 0.062 1/h (FIG. 2). The final biomass concentration was 21.6 g/l.\nIn order to further improve said strain in terms of length of lag-phase and growth rate, a 25 ml aliquot of the exponentional growing PALCPR-evolved-I strain was used to inoculate a fermentor, containing a similar medium as described in the previous example. However, the medium now only contained 100 g/l galactose and did contain 100 ml of octylacetate from the beginning of the fermentation. In addition, the stirrer speed was instantly set at 800 rpm. Upon inoculation of the fermentor, consumption of galactose only commenced after approximately 40 hours, indicated by a slow increase in CO2 signal, a decrease in dissolved oxygen and addition of base. Indeed the cells continued to grow exponentially with concomitant production of CO2, and consumed the galactose within less than 90 hours. Based upon the CO2 production the specific growth rate was estimated to be 0.041 1/h (FIG. 3). The final biomass concentration was 21.5 g/l. The strain is referred to as PALCPR-evolved-II.\nTherefore, to further improve said strain in terms of both length of lag-phase and growth rate, a 50 ml aliquot of the exponentional growing PALCPR-evolved-II strain was used to inoculate a fermentor, containing a similar medium as described in the previous example (thus containing 100 g/l galactose 100 ml of octylacetate from the beginning of the fermentation). The stirrer speed was instantly set at 800 rpm. Upon inoculation of the fermentor, consumption of galactose already commenced after less then 20 hours, indicated by a slow increase in CO2 signal, a decrease in dissolved oxygen and addition of base. Indeed the cells further grew exponentially with concomitant production of CO2, and now consumed the galactose within approximately 50 hours. Based upon the CO2 production the specific growth rate was estimated to be 0.091 1/h (FIG. 4). The final biomass concentration was 18.9 g/l. The strain is referred to as PALCPR-evolved-III.\nThe evolved PALCPR-evolved-III strain described in the previous example was grown in the presence of nonyl-acetate, a similar solvent as octylacetate with one additional carbon atom. A 1 ml aliquot of a glycerol stock that was made from an exponentional growing PALCPR-evolved-III strain was used to inoculate a fermentor, containing a similar medium as described in the previous example, containing only 100 g/l galactose and 100 ml of nonyl-acetate from the beginning of the fermentation. The stirrer speed was instantly set at 800 rpm. Upon inoculation of the fermentor, consumption of galactose only commenced after approximately 70 hours, indicated by a slow increase in CO2 signal, a decrease in dissolved oxygen and addition of base. […]"}, "[2]": {"conditions": "partition coefficient between water and octanol; cited from earlier work"}, "[3]": {"tested_on": "S. cerevisiae strain FS09229", "experiment": "Growth of non-evolved strain FS09229 in the presence of extraction solvent (CO2 production)", "format": "cell-based", "conditions": "100 ml solvent from start, 800 rpm", "experimental": "The non-evolved FS09229 strain described in previous examples was grown in the presence of nonyl-acetate. A 1 ml aliquot of a glycerol stock that was made from an exponentional growing FS09229 strain was used to inoculate a fermentor, containing a similar medium as described in the previous example, but now containing 100 g/l glucose and 100 ml of nonyl-acetate from the beginning of the fermentation. The stirrer speed was instantly set at 800 rpm. Upon inoculation of the fermentor, a long lag-phase of approximately 70 hrs set-in, during which an apparent adaptation to the solvent took place. Consumption of glucose only then commenced, indicated by a slow increase in CO2 signal, a decrease in dissolved oxygen and addition of base. Indeed the cells continued to grow exponentially with concomitant production of CO2, and consumed the glucose within less than 25 hours. […] The final biomass concentration was 15.5 g/l. The cultivation will be referred to as FS09229-solvent. As a control-experiment said strain was grown in the similar medium without the addition of nonyl-acetate. Upon inoculation of the fermentor, consumption of glucose commenced already after approximately 10 hours, indicated by an increase in CO2 signal, a decrease in dissolved oxygen and addition of base. […]"}},
  "data": [
    {"smiles": "CCCCCCCCCOC(C)=O", "note": "[nonyl-acetate]", "values": [
      {"measurement": "lag-phase until galactose consumption commenced", "setting": "[1]", "value": "approximately 70 hours"},
      {"measurement": "specific growth rate", "setting": "[1]", "value": 0.098, "unit": "h⁻¹"},
      {"measurement": "logP", "setting": "[2]", "value": 4.2},
      {"measurement": "lag-phase", "setting": "[3]", "value": "approximately 70 hrs"},
      {"measurement": "specific growth rate", "setting": "[3]; 100 g/l glucose", "value": 0.176, "unit": "h⁻¹"}
    ]}
  ]
}
